{"source": "ChEMBL document CHEMBL1151130", "about": "“Oxygenated Furanosesterterpene Tetronic Acids from a Sponge of the Genus Ircinia” (J Nat Prod, 1988)", "key": {"Human alphaherpesvirus 1 [1]": {"system": "Human alphaherpesvirus 1", "assay": "Antiviral activity against HSV1 infected in […] cells at 20 ug/disk", "assay_type": "functional, organism-based"}, "Poliovirus 1 [2]": {"system": "Poliovirus 1", "assay": "Antiviral activity against Poliovirus type 1 infected in […] cells at 20 ug/disk", "assay_type": "functional, organism-based"}, "Human alphaherpesvirus 1 [3]": {"system": "Human alphaherpesvirus 1", "assay": "Antiviral activity against HSV1 infected in […] cells at 2 ug/disk", "assay_type": "functional, organism-based"}, "Poliovirus 1 [4]": {"system": "Poliovirus 1", "assay": "Antiviral activity against Poliovirus type 1 infected in […] cells at 2 ug/disk", "assay_type": "functional, organism-based"}, "[5]": {"assay": "Cytotoxicity against […] cells at 2 ug/disk", "assay_type": "cell-based"}}, "note": "Calls of active or inactive are those of the source. The calls are words filed in the database; no cut-off is given here.", "data": [{"smiles": "COC1=C(C)C(=O)O/C1=C\\[C@@H](C)CCC/C(C)=C/CCC(C)(O)CCCc1ccoc1", "note": "(stereo partly drawn)", "values": [{"measurement": "Activity", "setting": "Human alphaherpesvirus 1 [1]", "value": "inactive"}, {"measurement": "Activity", "setting": "Poliovirus 1 [2]", "value": "inactive"}]}, {"smiles": "COC1=C(C)C(=O)O/C1=C\\[C@@H](C)CCC/C(C)=C/C/C=C(\\C)CCC(=O)c1ccoc1", "values": [{"measurement": "Activity", "setting": "Human alphaherpesvirus 1 [3]", "value": "inactive"}, {"measurement": "Activity", "setting": "Poliovirus 1 [4]", "value": "inactive"}]}, {"smiles": "CC1=C(O)/C(=C/[C@@H](C)CCC/C(C)=C/CC/C(C)=C/CCc2ccoc2)OC1=O", "values": [{"measurement": "Activity", "setting": "[5]", "value": "Toxic"}]}, {"smiles": "CC1=C(O)/C(=C/[C@@H](C)CCC/C(C)=C/CCC(C)(O)CCCc2ccoc2)OC1=O", "note": "(stereo partly drawn)", "values": [{"measurement": "Activity", "setting": "Human alphaherpesvirus 1 [1]", "value": "inactive"}, {"measurement": "Activity", "setting": "Poliovirus 1 [2]", "value": "inactive"}]}, {"smiles": "COC1=C(C)C(=O)O/C1=C\\[C@@H](C)CCC/C(C)=C/CC/C(C)=C/CCc1ccoc1", "values": [{"measurement": "Activity", "setting": "Human alphaherpesvirus 1 [1]", "value": "inactive"}, {"measurement": "Activity", "setting": "Poliovirus 1 [2]", "value": "inactive"}]}, {"smiles": "COC1=C(C)C(=O)O/C1=C\\[C@@H](C)CCC/C(C)=C/CC/C(C)=C/CC(=O)c1ccoc1", "values": [{"measurement": "Activity", "setting": "Human alphaherpesvirus 1 [3]", "value": "inactive"}, {"measurement": "Activity", "setting": "Poliovirus 1 [4]", "value": "inactive"}]}, {"smiles": "C=C(CC/C=C(\\C)CCC(=O)c1ccoc1)CCC[C@H](C)/C=C1\\OC(=O)C(C)=C1OC", "values": [{"measurement": "Activity", "setting": "Human alphaherpesvirus 1 [3]", "value": "inactive"}, {"measurement": "Activity", "setting": "Poliovirus 1 [4]", "value": "inactive"}]}]}
